Values of other authors in US20020064788A1, “Systematic approach to mechanism-of-response analyses” (priority 2000, published 2002).
Where two headings read alike, the source gives them in different places.

Legend:
[1] = tested on: malignant and normal cells
androgen-dependent cells = conditions: ouabain-induced decrease in Na+K+-ATPase activity
[2] = tested on: intracellular Ca^2+ levels; c-fos, c-jun, AP-1; conditions: partial inhibition of Na+K+-ATPase
[3] = tested on: Daudi (B-cell) cell lines; conditions: non-toxic doses
breast cancer = conditions: women on digitalis, five years after mastectomy
Glioblastoma cell lines = conditions: 30-60 nM, several Glioblastoma cell lines
[4] = tested on: Jurkat (T-cell) cell lines

## C[C@@H]1O[C@@H](O[C@H]2C[C@@H](O)[C@]3(CO)[C@H]4[C@H](O)C[C@]5(C)[C@@H](C6=CC(=O)OC6)CC[C@]5(O)[C@@H]4CC[C@]3(O)C2)[C@H](O)[C@H](O)[C@H]1O [ouabain]
Na^+K^+-ATPase
  inhibition of Na+K+-ATPase: specific inhibitors
[1]; malignant cells
  sensitization to irradiation: sensitizes
[1]; normal cells
  sensitization to irradiation: not
androgen-dependent cells
  sensitivity of cells to cisplatin: reduces sensitivity
[2]
  expression of c-fos, c-jun, and the transcription factor AP-1: increases
  intracellular Ca2+ levels: increases

## digitalis
[3]
  apoptosis: induces apoptosis
Breast cancer
  reduction in recurrence of breast cancer: 9.6 fold
Glioblastoma cell lines
  apoptosis: induces apoptosis
  cell adherence: affects cell adherence
[4]; non-toxic doses, Jurkat
  apoptosis: induces apoptosis

## C[C@H]1O[C@@H](O[C@H]2[C@@H](O)C[C@H](O[C@H]3[C@@H](O)C[C@H](O[C@H]4CC[C@@]5(C)[C@H](CC[C@@H]6[C@@H]5CC[C@]5(C)[C@@H](C7=CC(=O)OC7)CC[C@]65O)C4)O[C@@H]3C)O[C@@H]2C)C[C@H](O)[C@@H]1O [Digitoxin]
Na^+K^+-ATPase
  inhibition of Na+K+-ATPase: specific inhibitors

## CC/C(=C(\c1ccccc1)c1ccc(OCCN(C)C)cc1)c1ccccc1 [tamoxifen]
Na^+K^+-ATPase
  inhibition of Na+K+-ATPase: appears to inhibit

B1: Fas ligand: protein which binds to Fas receptor and strongly induces apoptosis (protein, UniProt P48023 130-281, looked up)
Tumor necrosis factor ligand …: QIGHPSPPPEKKELRKVAHLTGKSNSRSMPLEWEDTYGIVLLSGVKYKKGGLVINETGLYFVYSKVYFRGQSCNNLPLSHKVYMRNSKYPQDLVMMEGKMMSYCTTGQMWARSSYLGAVFNLTSADHLYVNVSELSLVNFEESQTFFGLYKL
[4]; Jurkat cells, monitored by flow cytometry
  apoptosis: induces apoptosis
